Entries after “also recorded” stand apart in the source; their conditions may differ. Where two headings read alike, the source gives them in different places.
Experiments:
[1] = catalepsy in rats; format: in vivo, rat; conditions: rat, in vivo, sc; rats
Description: (§1) The s.c. application of the compounds of Example 5 (0.5 to 16 mg/kg) and of Example 8 (0.125 to 4 mg/kg), respectively, caused catalepsy in rats (the method was described by Morelli and Chiara, Europ. J. Pharmacol. 117, 179-185, 1985).

[2] = biological target: T1, 5-HT1A serotoninergic receptor (Homo sapiens, UniProt P08908); assay: functional test, 5-HT1A serotoninergic receptor; conditions: in words
T1 sequence (P08908 1-422): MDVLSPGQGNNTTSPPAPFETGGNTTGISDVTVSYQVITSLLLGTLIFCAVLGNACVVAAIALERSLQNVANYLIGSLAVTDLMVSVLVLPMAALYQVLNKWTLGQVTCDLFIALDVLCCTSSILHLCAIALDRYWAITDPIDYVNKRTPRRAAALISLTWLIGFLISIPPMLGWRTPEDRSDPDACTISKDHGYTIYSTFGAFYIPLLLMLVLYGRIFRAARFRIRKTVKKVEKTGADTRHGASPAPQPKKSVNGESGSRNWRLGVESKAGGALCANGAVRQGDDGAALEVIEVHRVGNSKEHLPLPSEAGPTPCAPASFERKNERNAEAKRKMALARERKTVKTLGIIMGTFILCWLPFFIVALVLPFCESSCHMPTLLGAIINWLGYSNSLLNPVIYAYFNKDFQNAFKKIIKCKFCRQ

[3] = system: α1 receptors; assay: noradrenaline-induced lethality in rats; format: in vivo, rat; conditions: s.c.
[4] = biological target: D1 receptor (Homo sapiens, UniProt P21728); assay: binding, [^3 H]SCH23390
D1 receptor, sequence (P21728 whole entry): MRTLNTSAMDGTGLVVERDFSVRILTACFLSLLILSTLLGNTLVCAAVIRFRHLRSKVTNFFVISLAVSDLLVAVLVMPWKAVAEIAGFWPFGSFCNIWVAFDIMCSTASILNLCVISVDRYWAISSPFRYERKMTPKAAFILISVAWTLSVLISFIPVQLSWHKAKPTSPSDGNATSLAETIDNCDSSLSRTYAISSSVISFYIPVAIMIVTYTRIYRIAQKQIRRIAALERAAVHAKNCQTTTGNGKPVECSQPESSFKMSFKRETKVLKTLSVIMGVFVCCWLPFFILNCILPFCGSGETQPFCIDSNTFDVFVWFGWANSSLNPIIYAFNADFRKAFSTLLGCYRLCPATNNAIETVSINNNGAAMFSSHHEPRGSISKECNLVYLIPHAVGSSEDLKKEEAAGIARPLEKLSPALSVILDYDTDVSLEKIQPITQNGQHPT
Text: (§2) Binding affinities of the compounds of Examples 5

[5] = blood pressure and heart rate in pentobarbital-anesthetized normotensive rats; format: in vivo, rat; conditions: rat, in vivo, iv; normotensive rats, pentobarbital-induced anesthesia; read-out: ED50, decrease of the mean arterial blood pressure
[6] = system: pentobarbital-anesthetized normotensive rats; assay: as above; format: in vivo, rat; conditions: 450 μg/kg i.v.; for effect on carotid artery pressure / effect on heart rate: in words
[7] = biological target: T2, D2 receptors (Rattus norvegicus, UniProt P61169); assay: apomorphine-induced locomotion; format: in vivo; conditions: sc, -45 min., apomorphine 0.4 mg/kg s.c., rats, read-out: ID50, apomorphine-induced locomotion
T2 construct: from tissue; host or cells: living rats (central nervous system)
T2 sequence (P61169 whole entry): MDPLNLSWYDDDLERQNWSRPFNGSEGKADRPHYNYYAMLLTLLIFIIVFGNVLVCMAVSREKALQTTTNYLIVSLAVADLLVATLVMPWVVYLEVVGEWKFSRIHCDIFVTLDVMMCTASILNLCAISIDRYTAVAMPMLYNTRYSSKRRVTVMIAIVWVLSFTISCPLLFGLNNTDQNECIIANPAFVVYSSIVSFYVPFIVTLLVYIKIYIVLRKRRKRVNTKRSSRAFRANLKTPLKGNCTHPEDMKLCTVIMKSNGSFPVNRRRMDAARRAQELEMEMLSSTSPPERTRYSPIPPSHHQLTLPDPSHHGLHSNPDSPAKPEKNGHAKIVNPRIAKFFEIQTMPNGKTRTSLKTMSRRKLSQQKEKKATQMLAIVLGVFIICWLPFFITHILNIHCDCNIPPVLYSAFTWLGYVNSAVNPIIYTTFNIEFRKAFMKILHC

[8] = overall antipsychotic action and side-effect profile (summary statements); format: in vivo; conditions: in words
[9] = system: isolated rabbit thoracic aorta (noradrenaline); assay: inhibition of the constrictive activity of noradrenaline on the isolated rabbit thoracic aorta
[10] = system: α1 receptor; assay: binding, [^3 H]Prazosin
Text: as §2

[11] = biological target: T3, D2 receptors (Mus musculus, UniProt P61168); assay: apomorphine-induced climbing in mice; format: in vivo; conditions: ip, -30 min., apomorphine 1.5 mg/kg s.c., read-out: ID50, climbing behavior
T3 construct: from tissue; host or cells: living mice (central nervous system)
T3 sequence (P61168 whole entry): as the sequence (P61169 whole entry) above, with A29P counted along it
Description: The application of apomorphine in a dose of 1.5 mg/kg s.c. caused a characteristic climbing behavior in mice.

[12] = system: sigma receptor; assay: binding at [^3 H] DTG binding site; conditions: in words
[13] = prolongation of pentobarbital-induced anesthesia in mice; conditions: mouse, in vivo, ip
[14] = system: mice; assay: spontaneous motor activity in mice; format: in vivo; conditions: two models (motor activity and pentobarbital anesthesia); vs haloperidol; in words
[15] = spontaneous motor activity in mice; format: in vivo; conditions: mouse, in vivo, ip; mice; read-out: ID50, inhibition of spontaneous motor activity
[16] = system: sigma receptor; assay: functional test, sigma receptor; conditions: in words
[17] = biological target: 5-HT2 receptor (Homo sapiens, UniProt P28223); assay: biochemical; format: binding; conditions: for Ki: 5-HT2, [^3 H]Ketanserin, read-out: Ki; for affinity for 5-HT2 receptors: in words
5-HT2 receptor, sequence (P28223 whole entry): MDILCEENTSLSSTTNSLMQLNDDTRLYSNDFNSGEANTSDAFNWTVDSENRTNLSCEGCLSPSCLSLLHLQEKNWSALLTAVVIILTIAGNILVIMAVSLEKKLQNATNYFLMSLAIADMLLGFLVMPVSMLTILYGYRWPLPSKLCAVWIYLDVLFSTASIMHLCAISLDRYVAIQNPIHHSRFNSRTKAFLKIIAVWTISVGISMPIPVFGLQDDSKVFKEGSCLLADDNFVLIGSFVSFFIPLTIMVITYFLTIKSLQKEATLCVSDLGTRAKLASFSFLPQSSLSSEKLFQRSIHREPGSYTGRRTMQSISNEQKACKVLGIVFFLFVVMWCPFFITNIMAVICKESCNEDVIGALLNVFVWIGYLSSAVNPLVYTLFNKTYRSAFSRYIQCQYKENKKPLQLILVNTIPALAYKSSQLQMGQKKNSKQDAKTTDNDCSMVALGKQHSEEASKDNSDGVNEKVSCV
Text: (§3) Binding affinities of the compounds of Examples 1

[18] = system: isolated rat uterus; assay: uterotonic activity (isolated rat uterus); conditions: in words
[19] = system: rats; assay: catalepsy in rats; format: in vivo, rat; conditions: in words
Description: as §1

[20] = biological target: D2 receptor (Homo sapiens, UniProt P14416); assay: binding, [^3 H]Raclopride; conditions: for Ki: D2, [^3 H]Raclopride; for affinity for D2 receptors: in words
D2 receptor, sequence (P14416 whole entry): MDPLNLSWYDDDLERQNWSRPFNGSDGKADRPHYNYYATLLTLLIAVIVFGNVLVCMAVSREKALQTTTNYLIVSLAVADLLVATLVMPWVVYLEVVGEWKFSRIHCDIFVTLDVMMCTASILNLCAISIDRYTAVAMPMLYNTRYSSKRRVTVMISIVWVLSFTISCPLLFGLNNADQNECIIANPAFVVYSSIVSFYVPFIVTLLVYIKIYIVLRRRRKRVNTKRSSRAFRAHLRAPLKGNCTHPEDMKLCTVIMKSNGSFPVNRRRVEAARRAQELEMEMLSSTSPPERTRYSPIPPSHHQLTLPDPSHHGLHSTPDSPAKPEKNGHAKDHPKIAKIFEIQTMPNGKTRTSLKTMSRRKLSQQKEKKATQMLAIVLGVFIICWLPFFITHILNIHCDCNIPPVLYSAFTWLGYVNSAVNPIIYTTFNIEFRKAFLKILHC
Text: as §3

[21] = system: isolated rat uterus (serotonin); assay: inhibition of serotonin-induced contractions of the isolated rat uterus; conditions: serotonin-induced contractions (serotonin 2.47×10^-8 M where printed)
[22] = biological target: T4, 5-HT2 receptors (Mus musculus, UniProt P35363); assay: inhibition of the head twitch response after 5-HTP/carbidopa; format: in vivo, mice; conditions: ip; for ED50: mice, read-out: ID50, inhibition of head twitch response
T4 construct: The head twitch model in mice; from tissue; host or cells: living mice (central nervous system)
T4 sequence (P35363 whole entry): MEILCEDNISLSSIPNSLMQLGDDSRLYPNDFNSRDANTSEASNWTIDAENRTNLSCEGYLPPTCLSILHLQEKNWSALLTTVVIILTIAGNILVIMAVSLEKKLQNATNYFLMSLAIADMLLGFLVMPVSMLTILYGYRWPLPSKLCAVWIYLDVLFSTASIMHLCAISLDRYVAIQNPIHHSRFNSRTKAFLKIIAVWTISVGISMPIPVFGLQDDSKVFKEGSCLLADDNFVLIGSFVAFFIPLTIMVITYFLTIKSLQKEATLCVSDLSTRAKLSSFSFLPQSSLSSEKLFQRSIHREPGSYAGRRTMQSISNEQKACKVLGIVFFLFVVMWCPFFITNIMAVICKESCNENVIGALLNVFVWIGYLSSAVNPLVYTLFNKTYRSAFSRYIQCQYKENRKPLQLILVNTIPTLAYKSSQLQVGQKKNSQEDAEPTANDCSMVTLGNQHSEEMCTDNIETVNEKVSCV
Description: The substance was injected 15 minutes prior to DL-5-HTP. The head twitch was recorded from 30 to 35 minutes after the DL-5-HTP injection (modified method according to Handley and Singh, Br. J. Pharmacol. 86, 297 (1985)).
The compound was injected 15 minutes prior to L-5-HTP (modified method according to Handley and Singh, Br. J. Pharmacol. 86, 297 (1985)).
The head twitch model in mice represents an experimental model for determining the hallucinogenic action of a compound (the method was described by Handley and Singh, Br.J.Pharmacol., 86, 297-303, 1985). It is believed that the response is conveyed via the 5-HT2 receptors.

[23] = biological target: T1, 5-HT1A serotoninergic receptor; assay: binding at [^3 H] 8-OH-DPAT binding site; conditions: for affinity to 5-HT1A receptor: [^3 H] 8-OH-DPAT, in words
Text: as §3

[24] = biological target: T5, isolated rabbit thoracic aorta (serotonin) (Oryctolagus cuniculus, UniProt G1SYA7)
T5 construct: isolated rabbit thoracic aorta; from tissue; host or cells: isolated rabbit thoracic aorta
T5 sequence (G1SYA7 entry or part of it): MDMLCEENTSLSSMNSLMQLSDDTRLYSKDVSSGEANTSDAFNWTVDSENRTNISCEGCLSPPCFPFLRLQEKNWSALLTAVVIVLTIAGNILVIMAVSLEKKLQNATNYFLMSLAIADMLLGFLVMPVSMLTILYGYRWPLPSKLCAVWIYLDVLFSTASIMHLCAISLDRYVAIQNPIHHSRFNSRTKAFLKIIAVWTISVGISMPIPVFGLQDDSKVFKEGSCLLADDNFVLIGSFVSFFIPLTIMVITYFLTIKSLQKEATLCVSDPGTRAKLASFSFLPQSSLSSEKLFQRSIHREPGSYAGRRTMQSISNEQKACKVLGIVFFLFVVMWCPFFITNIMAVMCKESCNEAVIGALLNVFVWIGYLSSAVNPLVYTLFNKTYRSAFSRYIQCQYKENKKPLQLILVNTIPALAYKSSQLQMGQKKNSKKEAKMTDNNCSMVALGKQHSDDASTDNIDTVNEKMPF

[25] = system: pithed rats; assay: vasoconstriction / diastolic pressure in pithed rats (Gillespie); format: in vivo, rat; conditions: 450 μg/kg i.v.; for peripheral vasoconstriction: in words
[26] = system: 5-HT1A receptors; assay: spontaneous tail-flicks in rats; format: in vivo, rat; conditions: in words
[27] = system: pupil; assay: dilatation of the pupil in mice (Pulewka); format: in vivo; conditions: in words
[28] = system: isolated rabbit thoracic aorta; assay: constriction of the isolated rabbit thoracic aorta

Q: For `O=C(CCCN1CCC(O)(c2ccc(Cl)cc2)CC1)c1ccc(F)cc1` [haloperidole, reference compound], which ED50 [1] is on record?
A: 0.019 mg/kg

Q: Which “functional activity at 5-HT1A” value [2] does the source give for `C#CCN(C)C(=O)[C@@H]1C=C2c3cccc4[nH]c(Br)c(c34)C[C@H]2N(C)C1` [Example 5, 2-Bromo-9,10-didehydro-N-methyl-N-(2'-propinyl)-6-methylergoline-8β-carboxamide] here?
A: did not indicate any activity

Q: And the “ID50, noradrenaline-induced lethality” value [3]?
A: 5.11 mg/kg

Q: What about the Ki ([4]; D1, [^3 H]SCH23390) of the same compound?
A: 97 nM

Q: And the “affinity for D1 receptors” value ([4]; in words)?
A: lower

Q: And the ED50 [5]?
A: 0.42 mg/kg

Q: What about the “effect on carotid artery pressure” value [6] of the same compound?
A: small, yet statistically significant decrease in carotid artery pressure and heart rate

Q: What about the “effect on heart rate” value [6] of the same compound?
A: small, yet statistically significant decrease in carotid artery pressure and heart rate

Q: And the “maximum reduction in carotid artery pressure” value ([6]; vs initial level)?
A: 10%

Q: What about the “reduction in heart rate” value ([6]; vs initial level) of the same compound?
A: 10%

Q: What about the ED50 [7] of the same compound?
A: 0.66 mg/kg

Q: What about the antipsychotic action [8] of the same compound?
A: strongest antipsychotic action

Q: What about the “mode of inhibition of noradrenaline constriction” value ([9]; in words) of the same compound?
A: competitively inhibited

Q: And the pA2 ([9]; vs noradrenaline)?
A: 6.45

Q: And the “affinity for α1 receptors” value ([10]; in words)?
A: lower

Q: What about the Ki ([10]; α1, [^3 H]Prazosin) of the same compound?
A: 29 nM

Q: What about the ED50 [11] of the same compound?
A: 6.89 mg/kg

Q: And the “affinity to sigma receptor” value [12]?
A: possessed affinity

Q: And the ED50 [13]?
A: 9.2 mg/kg

Q: And the “depressant action on the level of CNS” value [14]?
A: several times lower depressant action on the level of CNS if compared with haloperidol

Q: And the ED50 [15]?
A: 12.5 mg/kg

Q: And the “functional activity at sigma receptor” value [16]?
A: indicated an antagonistic activity

Q: What about the Ki [17] of the same compound?
A: 18 nM

Q: And the “affinity for 5-HT2 receptors” value [17]?
A: high affinity

Q: And the uterotonic activity [18]?
A: no uterotonic activity

Q: What about the “cataleptic action compared with haloperidole” value [19] of the same compound?
A: lesser than the action caused by the typical antipsychotic haloperidole

Q: And the ED50 [1]?
A: 1.4 mg/kg

Q: And the Ki [20]?
A: 2.3 nM

Q: What about the “affinity for D2 receptors” value [20] of the same compound?
A: high affinity

Q: And the IC50 [21]?
A: 12.5 nM

Q: And the ED50 ([22]; L-5-HTP/carbidopa, 15 minutes prior)?
A: 3.8 mg/kg

Q: What about the “affinity to 5-HT1A receptor” value [23] of the same compound?
A: possessed affinity

Q: What about the “mode of inhibition of serotonin constriction” value ([24]; in words) of the same compound?
A: competitively inhibited

Q: What about the Kb ([24]; vs serotonin, read-out: pA2 (converted)) of the same compound?
A: 11.7 nM

Q: And the peripheral vasoconstriction [25]?
A: slowly developing peripheric vasoconstriction

Q: What about the “peripheric vasoconstriction, increase” value ([25]; vs control) of the same compound?
A: 20%

Q: Which “functional activity at 5-HT1A” value [2] does the source give for `C#CCNC(=O)[C@@H]1C=C2c3cccc4[nH]cc(c34)C[C@H]2N(C)C1` [Example 1, 9,10-Didehydro-N-(2'-propinyl)-6-methylergoline-8β-carboxamide] here?
A: indicated an agonistic activity

Q: And the spontaneous tail-flick ([26]; 0.08 to 0.63 mg/kg s.c. (Example 1), 5.0 mg/kg s.c. (Example 2))?
A: provoked a dose- and time-dependent spontaneous tail-flick in rats

Q: And the “tail-flick effect compared with 8-OH-DPAT” value ([26]; s.c.)?
A: very similar to that caused by the selective 5-HT1A agonist 8-OH-DPAT

Q: And the exitus [6]?
A: followed by exitus

Q: What about the “time to onset of reduction in pressure and heart rate” value [6] of the same compound?
A: Approximately 2 minutes

Q: What about the “effect on carotid artery pressure” value [6] of the same compound?
A: a strong reduction in the carotid artery pressure and heart rate

Q: And the “effect on heart rate” value [6]?
A: a strong reduction in the carotid artery pressure and heart rate

Q: And the “dilatation of the pupil” value ([27]; 5 mg/kg i.p.)?
A: very strong dilatation of the pupil

Q: And the “time course of effect” value ([27]; 5 mg/kg i.p.)?
A: After 60 minutes the effect was quickly reduced

Q: What about the “behavioural effects in mice” value [27] of the same compound?
A: The mice became agitated, piloerection, tremor and excitation took place

Q: And the “affinity to sigma receptor” value [12]?
A: possessed affinity

Q: And the “functional activity at sigma receptor” value [16]?
A: indicated an antagonistic activity

Q: What about the Ki [17] of the same compound?
A: 64 nM

Q: And the “affinity for 5-HT2 receptors” value [17]?
A: high affinity

Q: And the uterotonic activity [18]?
A: no uterotonic activity

Q: What about the Ki [20] of the same compound?
A: 151 nM

Q: And the “affinity for D2 receptors” value [20]?
A: lower affinity

Q: And the inhibition at 4 mg/kg ([22]; 4 mg/kg i.p., D,L-5-hydroxytryptophan/carbidopa, 15 minutes prior)?
A: 62%

Q: And the ED50 ([22]; 5-hydroxytryptophan/carbidopa)?
A: 0.74 mg/kg

Q: And the Ki ([23]; 5-HT1A, [^3 H]8-OH-DPAT)?
A: 1 nM

Q: What about the “affinity to 5-HT1A receptor” value [23] of the same compound?
A: high affinity; also recorded: possessed affinity

Q: What about the “receptors responsible for vasoconstriction” value ([28]; 1 μM) of the same compound?
A: the result of the activation of α1 -adrenergic receptors

Q: What about the “constriction of the isolated rabbit thoracic aorta” value ([28]; in words) of the same compound?
A: caused a constriction of the isolated rabbit thoracic aorta

Q: What about the “intrinsic activity, aorta constriction” value ([28]; in words, vs serotonin) of the same compound?
A: comparable to that of serotonin

Q: What about the peripheral vasoconstriction [25] of the same compound?
A: transient, yet very strong peripheral vasoconstriction

From patent publication US5480885A, “Ergoline derivatives of 1-propinylamine, a process for the manufacture thereof and the use thereof for medicaments” (priority 1991, dated 1996)
